Patent US10167262B2, “Herbicidal substituted 3-arylpyrazoles” (FMC CORPORATION, priority 2014, dated 2019)

What was measured:
Experiment in all cases: Test E pre-/postemergence greenhouse test, plant response rating 0-100
Type in all cases: in vivo
[1] = system: smartweed (ladysthumb smartweed, Polygonum persicaria); conditions: Postemergence, 500 g ai/ha; scale 0 to 100
[2] = system: goosegrass (Eleusine indica); conditions: Preemergence, scale 0 to 100
[3] = system: green foxtail (Setaria viridis); conditions: Preemergence, scale 0 to 100
[4] = system: giant foxtail (Setaria faberii); conditions: Preemergence, scale 0 to 100
[5] = system: morningglory (Ipomoea coccinea); conditions: Preemergence, scale 0 to 100
[6] = system: velvetleaf (Abutilon theophrasti); conditions: Preemergence, scale 0 to 100
In short: (§1)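 Pre: seeded silt loam sprayed; post: 1–4-leaf plants (2–18 cm) in peat-based mix sprayed. Formulation: non-phytotoxic solvent + surfactant. Greenhouse 14–21 d; visual rating vs controls, 0 = no effect, 100 = complete control.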

[7] = system: surinam grass (Brachiaria decumbens); conditions: Preemergence, scale 0 to 100
In short: as §1

[8] = system: nightshade (eastern black nightshade, Solanum ptycanthum); conditions: Preemergence, scale 0 to 100
In short: as §1

[9] = system: lambsquarters (Chenopodium album); conditions: Preemergence, scale 0 to 100
In short: as §1

[10] = system: ragweed (common ragweed, Ambrosia elatior); conditions: Preemergence, scale 0 to 100
In short: as §1

For `CCn1cc(C(=O)c2cccs2)c(-c2cc(Cl)cc(Cl)c2)n1` [Compound 18], the “Plant response rating, Smartweed” value [1] was 20.
`O=Cn1cc(C(=O)c2ccccc2)c(-c2cc(Cl)cc(Cl)c2)n1` [Compound 28] was tested, and the “Goosegrass plant response rating” value ([2]; 31 g ai/ha) was 0, the “Goosegrass plant response rating” value ([2]; 62 g ai/ha) was 0 and the “Goosegrass plant response rating” value ([2]; 125 g ai/ha) was 0. The “Goosegrass plant response rating” value ([2]; 250 g ai/ha) was 0, the “Goosegrass plant response rating” value ([2]; 500 g ai/ha) was 0 and the “Foxtail, Green plant response rating” value ([3]; 31 g ai/ha) was 0. For the same molecule, the “Foxtail, Green plant response rating” value ([3]; 62 g ai/ha) was 0, the “Foxtail, Green plant response rating” value ([3]; 125 g ai/ha) was 0 and the “Foxtail, Green plant response rating” value ([3]; 250 g ai/ha) was 0. For the same molecule, the “Foxtail, Green plant response rating” value ([3]; 500 g ai/ha) was 0, the “Foxtail, Giant plant response rating” value ([4]; 31 g ai/ha) was 0 and the “Foxtail, Giant plant response rating” value ([4]; 62 g ai/ha) was 0. For the same molecule, the “Foxtail, Giant plant response rating” value ([4]; 125 g ai/ha) was 20, the “Foxtail, Giant plant response rating” value ([4]; 250 g ai/ha) was 0 and the “Foxtail, Giant plant response rating” value ([4]; 500 g ai/ha) was 0. For the same molecule, the “Morningglory plant response rating” value ([5]; 31 g ai/ha) was 0, the “Morningglory plant response rating” value ([5]; 62 g ai/ha) was 0 and the “Morningglory plant response rating” value ([5]; 125 g ai/ha) was 0. The “Morningglory plant response rating” value ([5]; 250 g ai/ha) was 0, the “Morningglory plant response rating” value ([5]; 500 g ai/ha) was 0 and the “Velvetleaf plant response rating” value ([6]; 31 g ai/ha) was 0. The “Velvetleaf plant response rating” value ([6]; 62 g ai/ha) was 0, the “Velvetleaf plant response rating” value ([6]; 125 g ai/ha) was 0 and the “Velvetleaf plant response rating” value ([6]; 250 g ai/ha) was 40. The “Velvetleaf plant response rating” value ([6]; 500 g ai/ha) was 100, the “Surinam Grass plant response rating” value ([7]; 31 g ai/ha) was 0 and the “Surinam Grass plant response rating” value ([7]; 62 g ai/ha) was 0. For the same molecule, the “Surinam Grass plant response rating” value ([7]; 125 g ai/ha) was 0, the “Surinam Grass plant response rating” value ([7]; 250 g ai/ha) was 0 and the “Surinam Grass plant response rating” value ([7]; 500 g ai/ha) was 0. For the same molecule, the “Nightshade plant response rating” value ([8]; 31 g ai/ha) was 0, the “Nightshade plant response rating” value ([8]; 62 g ai/ha) was 0 and the “Nightshade plant response rating” value ([8]; 125 g ai/ha) was 0. The “Nightshade plant response rating” value ([8]; 250 g ai/ha) was 0, the “Nightshade plant response rating” value ([8]; 500 g ai/ha) was 0 and the “Lambsquarters plant response rating” value ([9]; 31 g ai/ha) was 0. The “Lambsquarters plant response rating” value ([9]; 62 g ai/ha) was 95, the “Lambsquarters plant response rating” value ([9]; 125 g ai/ha) was 100 and the “Lambsquarters plant response rating” value ([9]; 250 g ai/ha) was 100. The “Lambsquarters plant response rating” value ([9]; 500 g ai/ha) was 100, the “Ragweed plant response rating” value ([10]; 31 g ai/ha) was 0 and the “Ragweed plant response rating” value ([10]; 62 g ai/ha) was 0. For the same molecule, the “Ragweed plant response rating” value ([10]; 125 g ai/ha) was 30, the “Ragweed plant response rating” value ([10]; 250 g ai/ha) was 65 and the “Ragweed plant response rating” value ([10]; 500 g ai/ha) was 70.
`CCn1cc(C(=O)c2ccccc2)c(-c2cc(Cl)cc(Cl)c2)n1` [Compound 31, [3-(3,5-dichlorophenyl)-1-ethyl-1H-pyrazol-4-yl]phenylmethanone] was tested, and the “Goosegrass plant response rating” value ([2]; 62 g ai/ha) was 0, the “Goosegrass plant response rating” value ([2]; 125 g ai/ha) was 0 and the “Goosegrass plant response rating” value ([2]; 250 g ai/ha) was 0. For the same molecule, the “Goosegrass plant response rating” value ([2]; 500 g ai/ha) was 0, the “Foxtail, Green plant response rating” value ([3]; 62 g ai/ha) was 0 and the “Foxtail, Green plant response rating” value ([3]; 125 g ai/ha) was 0. For the same molecule, the “Foxtail, Green plant response rating” value ([3]; 250 g ai/ha) was 0, the “Foxtail, Green plant response rating” value ([3]; 500 g ai/ha) was 0 and the “Foxtail, Giant plant response rating” value ([4]; 62 g ai/ha) was 0. For the same molecule, the “Foxtail, Giant plant response rating” value ([4]; 125 g ai/ha) was 0, the “Foxtail, Giant plant response rating” value ([4]; 250 g ai/ha) was 0 and the “Foxtail, Giant plant response rating” value ([4]; 500 g ai/ha) was 0. The “Morningglory plant response rating” value ([5]; 62 g ai/ha) was 0, the “Morningglory plant response rating” value ([5]; 125 g ai/ha) was 0 and the “Morningglory plant response rating” value ([5]; 250 g ai/ha) was 0. For the same molecule, the “Morningglory plant response rating” value ([5]; 500 g ai/ha) was 0, the “Velvetleaf plant response rating” value ([6]; 62 g ai/ha) was 65 and the “Velvetleaf plant response rating” value ([6]; 125 g ai/ha) was 50. For the same molecule, the “Velvetleaf plant response rating” value ([6]; 250 g ai/ha) was 80, the “Velvetleaf plant response rating” value ([6]; 500 g ai/ha) was 80 and the “Surinam Grass plant response rating” value ([7]; 62 g ai/ha) was 0. The “Surinam Grass plant response rating” value ([7]; 125 g ai/ha) was 0, the “Surinam Grass plant response rating” value ([7]; 250 g ai/ha) was 0 and the “Surinam Grass plant response rating” value ([7]; 500 g ai/ha) was 0. The “Nightshade plant response rating” value ([8]; 62 g ai/ha) was 0, the “Nightshade plant response rating” value ([8]; 125 g ai/ha) was 0 and the “Nightshade plant response rating” value ([8]; 250 g ai/ha) was 0. The “Nightshade plant response rating” value ([8]; 500 g ai/ha) was 50, the “Lambsquarters plant response rating” value ([9]; 62 g ai/ha) was 0 and the “Lambsquarters plant response rating” value ([9]; 125 g ai/ha) was 100. The “Lambsquarters plant response rating” value ([9]; 250 g ai/ha) was 100, the “Lambsquarters plant response rating” value ([9]; 500 g ai/ha) was 100 and the “Ragweed plant response rating” value ([10]; 62 g ai/ha) was 0. The “Ragweed plant response rating” value ([10]; 125 g ai/ha) was 35, the “Ragweed plant response rating” value ([10]; 250 g ai/ha) was 50 and the “Ragweed plant response rating” value ([10]; 500 g ai/ha) was 80.
